# Columns and labels:
# HDAC8 = target: T1, HDAC8 (Homo sapiens, UniProt Q9BY41); assay: ITC; assay type: binding; settings: […] HEPES pH […] KCl, […] glycerol, […] TCEP
# T1 sequence (Q9BY41 1-377): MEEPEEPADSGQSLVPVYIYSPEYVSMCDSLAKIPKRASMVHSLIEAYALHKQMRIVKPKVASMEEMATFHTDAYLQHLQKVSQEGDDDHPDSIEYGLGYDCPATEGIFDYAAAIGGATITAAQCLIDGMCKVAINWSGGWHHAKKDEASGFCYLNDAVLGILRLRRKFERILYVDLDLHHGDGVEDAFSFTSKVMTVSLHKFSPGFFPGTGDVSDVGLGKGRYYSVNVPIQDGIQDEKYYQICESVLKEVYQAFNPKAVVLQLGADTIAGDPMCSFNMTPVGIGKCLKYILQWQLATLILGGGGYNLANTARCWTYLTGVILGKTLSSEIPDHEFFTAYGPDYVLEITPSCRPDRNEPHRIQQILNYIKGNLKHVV
# [1] = target: T2, HDAC6 (catalytic domain 2, CD2) (Danio rerio, UniProt F8W4B7); assay: ITC; assay type: binding; settings: […] HEPES pH […] KCl, […] glycerol, […] TCEP
# T2 sequence (F8W4B7 440-798): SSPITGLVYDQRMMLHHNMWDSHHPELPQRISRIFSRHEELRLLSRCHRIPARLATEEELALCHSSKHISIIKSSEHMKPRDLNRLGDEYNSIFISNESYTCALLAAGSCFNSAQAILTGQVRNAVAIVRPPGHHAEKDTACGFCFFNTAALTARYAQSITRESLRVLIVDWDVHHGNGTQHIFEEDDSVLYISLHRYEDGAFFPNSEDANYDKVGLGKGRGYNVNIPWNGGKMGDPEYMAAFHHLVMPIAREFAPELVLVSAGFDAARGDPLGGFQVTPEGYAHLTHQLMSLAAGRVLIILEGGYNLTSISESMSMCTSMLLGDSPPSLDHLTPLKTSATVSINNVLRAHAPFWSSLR
Structure (SMILES),Kd (HDAC8),Kd [1]
O=C(NO)c1ccc(CN(CCO)C(=O)Cc2ccccc2)cc1 [HPB],we additionally studied the binding of the phenylhydroxamate derivative HPB,we additionally studied the binding of the phenylhydroxamate derivative HPB
O=C(CCCCCCNC(=O)c1cnc(N(c2ccccc2)c2ccccc2)nc1)NO [Ricolinostat],–,the aliphatic hydroxamate inhibitor Ricolinostat
O=C(CCCCCCC(=O)Nc1ccccc1)NO [SAHA],–,the aliphatic hydroxamate inhibitor suberoylanilide hydroxamic acid (SAHA)
